Test results published in patent publication US7695930B2, “Method for the detection, identification and/or quantification of microoganisms with peptidase activity using phenoxazinone derivatives as enzyme substrates” (Biomerieux, priority 2003, dated 2010).

Key:
Format in all cases: cell-based
[1] = system: Enterobacter clocae (NCTC 11936); experiment: Alanine peptidase detection, substrates with one to three amino acids (Example 15); parameters: key to color of the colony: R=pink; RP=pale pink; I=colorless; settings: 50 mg/l
Protocol: (§1) 1000 ml of Columbia medium was melted in a waterbath at 100° C. and autoclaved at 121° C. for 15 min. It was then cooled to 50° C. in a waterbath.
(§2) This medium was separated into 5 flasks of 200 ml, and then, added at 50° C., as substrates, was that of Example 2 for which A is: • medium 1: L-alanine (L-alanine-9-aminobenzo[a]phenoxazin-5-one or A-ABP), • medium 2: L-alanine-L-alanine (L-alanine-L-alanine-9-aminobenzo-[a]phenoxazin-5-one or AA-ABP), • medium 3: L-alanine-L-alanine-L-alanine (L-alanine-L-alanine-L-alanine-9-aminobenzo[a]phenoxazin-5-one or AAA-ABP), • medium 4: L-alanine-glycine (L-alanine-glycine-9-aminobenzo[a]phenoxazin-5-one or AG-ABP), and • medium 5: glycine-L-alanine (glycine-L-alanine-9-aminobenzo[a]phenoxazin-5-one or GA-ABP), each substrate being solubilized in DMSO and used at a final concentration of 50 mg/l.
(§3) The medium was then poured into Petri dishes.
(§4) Nine microorganism strains derived from the Applicant's collection, suspended in physiological saline, were seeded in colonies on the media prepared in point 15.1 above according to a multipoint inoculation in a proportion of 15 000 cfu/spot. The dishes were incubated at 37° C. for 48 hours. The colonies formed were examined visually after incubation for 24 and 48 hours.
(§5) The results are expressed in Tables 7 and 8 hereinafter according to the rules and the nomenclature stated in paragraph 11.3 and where R=pink, RP=pale pink and I=colorless.

[2] = system: Listeria monocytogenes (NCTC 11994); experiment: as above; parameters: key to color of the colony: R=pink; RP=pale pink; I=colorless; settings: 50 mg/l
Protocol: as §1, §2, §3, §4, §5

[3] = system: Micrococcus luteus (NCTC611); experiment: as above; parameters: key to color of the colony: R=pink; RP=pale pink; I=colorless; settings: 50 mg/l
Protocol: as §1, §2, §3, §4, §5

[4] = system: Pseudomonas aerigunosa (NCTC 10038); experiment: as above; parameters: key to color of the colony: R=pink; RP=pale pink; I=colorless; settings: 50 mg/l
Protocol: as §1, §2, §3, §4, §5

[5] = system: Staphylococcus aureus (NCTC 6571); experiment: as above; parameters: key to color of the colony: R=pink; RP=pale pink; I=colorless; settings: 50 mg/l
Protocol: as §1, §2, §3, §4, §5

[6] = system: Staphylococcus epidermis (NCTC 11047); experiment: as above; parameters: key to color of the colony: R=pink; RP=pale pink; I=colorless; settings: 50 mg/l
Protocol: as §1, §2, §3, §4, §5

Candida albicans = experiment: Leucine-peptidase detection on agar medium (Example 11); for color of the colony: key: B corresponds to fluorescent blue; R corresponds to pink
Protocol: (§6) The detection medium was prepared by mixing 1.4 g of biogelytone (bioMérieux), 0.84 g of meat extract (bioMérieux), 2.24 g of NaCl (Merck), 280 μl of a solution of IPTG (isopropylthio-β-D-galactopyranoside, BIOSYNTH) in water (concentration 10 g/l) and 4.2 g of European agar (bioMérieux).
(§7) The substrate of the invention obtained in Example 2, in which the amino acid is leucine (leucine-9-aminobenzo[a]phenoxazin-5-one or Leu-ABP), or else a substrate of the prior art, which is leucine-aminomethylcoumarin (Leu-AMC, BACHEM), was then added in the following way: 280 ml of osmosed water were added to the medium, and the mixture was melted in a waterbath at 100° C. The mixture was autoclaved for 15 min at 121° C. and cooled to 50° C. in a waterbath.
as §3
(§8) The coloration of these colonies, the diffusion, and also the intensity of this coloration were noted.
(§9) The results were expressed as intensity of coloration using an arbitrary scale ranging from 0 to 4 as a basis and also as diffusion also using an arbitrary scale ranging from 0 to 4 as a basis.

Klebsellia pneumoniae = experiment: as above; for color of the colony: key: B corresponds to fluorescent blue; R corresponds to pink
Protocol: as §6, §7, §3, §8, §9

Pseudomonas aeruginosa = experiment: as above; for color of the colony: key: B corresponds to fluorescent blue; R corresponds to pink
Protocol: as §6, §7, §3, §8, §9

L-alanyl-9-aminobenzo[a]phenoxazin-5-one [Ala-ABP]
color of the colony ([1]; 24 h): R | growth diameter ([1]; 24 h): 3 mm | color of the colony ([1]; 48 h): R | growth diameter ([1]; 48 h): 3 mm | color of the colony ([2]; 24 h): I | growth diameter ([2]; 24 h): 2 mm | color of the colony ([2]; 48 h): R | growth diameter ([2]; 48 h): 2 mm | growth diameter ([3]; 24 h): 0 mm | growth diameter ([3]; 48 h): 0 mm | color of the colony ([4]; 24 h): R | growth diameter ([4]; 24 h): 3 mm | color of the colony ([4]; 48 h): R | growth diameter ([4]; 48 h): 3 mm | growth diameter ([5]; 24 h): 0 mm | color of the colony ([5]; 48 h): I | growth diameter ([5]; 48 h): 2 mm | growth diameter ([6]; 24 h): 0 mm | growth diameter ([6]; 48 h): 0 mm

leucine-9-aminobenzo[a]phenoxazin-5-one [Leu-ABP]
growth diameter (Candida albicans; 24 h, 25 mg/l): 0.3 mm | color of the colony (Candida albicans; 48 h, 25 mg/l): R | growth diameter (Candida albicans; 48 h, 25 mg/l): 0.5 mm | intensity of coloration, scale 0 to 4 (Candida albicans; 48 h, 25 mg/l): 0.25 | growth diameter (Candida albicans; 48 h, 50 mg/l): 0.3 mm | color of the colony (Klebsellia pneumoniae; 24 h, 25 mg/l): R | growth diameter (Klebsellia pneumoniae; 24 h, 25 mg/l): 1.8 mm | intensity of coloration, scale 0 to 4 (Klebsellia pneumoniae; 24 h, 25 mg/l): 1.5 | color of the colony (Klebsellia pneumoniae; 24 h, 50 mg/l): R | growth diameter (Klebsellia pneumoniae; 24 h, 50 mg/l): 1.7 mm | intensity of coloration, scale 0 to 4 (Klebsellia pneumoniae; 24 h, 50 mg/l): 1.5 | color of the colony (Klebsellia pneumoniae; 24 h, 100 mg/l): R | growth diameter (Klebsellia pneumoniae; 24 h, 100 mg/l): 1.7 mm | intensity of coloration, scale 0 to 4 (Klebsellia pneumoniae; 24 h, 100 mg/l): 1.5 | color of the colony (Klebsellia pneumoniae; 24 h, 200 mg/l): R | growth diameter (Klebsellia pneumoniae; 24 h, 200 mg/l): 1.7 mm | intensity of coloration, scale 0 to 4 (Klebsellia pneumoniae; 24 h, 200 mg/l): 2 | color of the colony (Klebsellia pneumoniae; 24 h, 400 mg/l): R | growth diameter (Klebsellia pneumoniae; 24 h, 400 mg/l): 1.7 mm | intensity of coloration, scale 0 to 4 (Klebsellia pneumoniae; 24 h, 400 mg/l): 2.5 | color of the colony (Klebsellia pneumoniae; 48 h, 25 mg/l): R | growth diameter (Klebsellia pneumoniae; 48 h, 25 mg/l): 1.8 mm | intensity of coloration, scale 0 to 4 (Klebsellia pneumoniae; 48 h, 25 mg/l): 2 | color of the colony (Klebsellia pneumoniae; 48 h, 50 mg/l): R | growth diameter (Klebsellia pneumoniae; 48 h, 50 mg/l): 1.7 mm | intensity of coloration, scale 0 to 4 (Klebsellia pneumoniae; 48 h, 50 mg/l): 2.5 | color of the colony (Klebsellia pneumoniae; 48 h, 100 mg/l): R | growth diameter (Klebsellia pneumoniae; 48 h, 100 mg/l): 1.7 mm | intensity of coloration, scale 0 to 4 (Klebsellia pneumoniae; 48 h, 100 mg/l): 1.5 | color of the colony (Klebsellia pneumoniae; 48 h, 200 mg/l): R | growth diameter (Klebsellia pneumoniae; 48 h, 200 mg/l): 1.7 mm | intensity of coloration, scale 0 to 4 (Klebsellia pneumoniae; 48 h, 200 mg/l): 1 | color of the colony (Klebsellia pneumoniae; 48 h, 400 mg/l): R | growth diameter (Klebsellia pneumoniae; 48 h, 400 mg/l): 1.8 mm | intensity of coloration, scale 0 to 4 (Klebsellia pneumoniae; 48 h, 400 mg/l): 1 | growth diameter (Pseudomonas aeruginosa; 24 h, 25 mg/l): 2 mm | color of the colony (Pseudomonas aeruginosa; 24 h, 50 mg/l): R | growth diameter (Pseudomonas aeruginosa; 24 h, 50 mg/l): 2 mm | intensity of coloration, scale 0 to 4 (Pseudomonas aeruginosa; 24 h, 50 mg/l): 0.75 | color of the colony (Pseudomonas aeruginosa; 24 h, 100 mg/l): R | growth diameter (Pseudomonas aeruginosa; 24 h, 100 mg/l): 2 mm | intensity of coloration, scale 0 to 4 (Pseudomonas aeruginosa; 24 h, 100 mg/l): 0.75 | color of the colony (Pseudomonas aeruginosa; 24 h, 200 mg/l): R | growth diameter (Pseudomonas aeruginosa; 24 h, 200 mg/l): 2 mm | intensity of coloration, scale 0 to 4 (Pseudomonas aeruginosa; 24 h, 200 mg/l): 0.5 | color of the colony (Pseudomonas aeruginosa; 24 h, 400 mg/l): R | growth diameter (Pseudomonas aeruginosa; 24 h, 400 mg/l): 2 mm | intensity of coloration, scale 0 to 4 (Pseudomonas aeruginosa; 24 h, 400 mg/l): 0.5 | color of the colony (Pseudomonas aeruginosa; 48 h, 25 mg/l): R | growth diameter (Pseudomonas aeruginosa; 48 h, 25 mg/l): 2 mm | intensity of coloration, scale 0 to 4 (Pseudomonas aeruginosa; 48 h, 25 mg/l): 1 | color of the colony (Pseudomonas aeruginosa; 48 h, 50 mg/l): R | growth diameter (Pseudomonas aeruginosa; 48 h, 50 mg/l): 2 mm | intensity of coloration, scale 0 to 4 (Pseudomonas aeruginosa; 48 h, 50 mg/l): 2.5 | color of the colony (Pseudomonas aeruginosa; 48 h, 100 mg/l): R | growth diameter (Pseudomonas aeruginosa; 48 h, 100 mg/l): 2 mm | intensity of coloration, scale 0 to 4 (Pseudomonas aeruginosa; 48 h, 100 mg/l): 2.5 | color of the colony (Pseudomonas aeruginosa; 48 h, 200 mg/l): R | growth diameter (Pseudomonas aeruginosa; 48 h, 200 mg/l): 2 mm | intensity of coloration, scale 0 to 4 (Pseudomonas aeruginosa; 48 h, 200 mg/l): 2 | color of the colony (Pseudomonas aeruginosa; 48 h, 400 mg/l): R | growth diameter (Pseudomonas aeruginosa; 48 h, 400 mg/l): 2 mm | intensity of coloration, scale 0 to 4 (Pseudomonas aeruginosa; 48 h, 400 mg/l): 0.5
